Measurements from patent publication US20220298141A1, “ENZYME INHIBITORS” (KALVISTA PHARMACEUTICALS LIMITED, priority 2019, published 2022).

Target: T1, Human FXIa (Homo sapiens, UniProt P03951)
T1 construct: purchased Enzyme Research Laboratories
Assay: Determination of FXIa inhibitory activity in vitro (fluorogenic substrate Z-Gly-Pro-Arg-AFC)
Type: biochemical
Conditions: Selectivity, Human FXIa (Enzyme Research Laboratories), 25° C.

T1 sequence (P03951 388-625 limits assumed): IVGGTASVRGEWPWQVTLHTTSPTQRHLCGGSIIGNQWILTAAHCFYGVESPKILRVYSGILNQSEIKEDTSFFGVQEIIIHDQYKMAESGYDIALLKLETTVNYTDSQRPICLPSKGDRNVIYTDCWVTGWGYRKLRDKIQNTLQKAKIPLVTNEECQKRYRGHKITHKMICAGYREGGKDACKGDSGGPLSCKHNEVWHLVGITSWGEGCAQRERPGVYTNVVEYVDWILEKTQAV
T1 sequence (P03951 19-387 partner limits assumed): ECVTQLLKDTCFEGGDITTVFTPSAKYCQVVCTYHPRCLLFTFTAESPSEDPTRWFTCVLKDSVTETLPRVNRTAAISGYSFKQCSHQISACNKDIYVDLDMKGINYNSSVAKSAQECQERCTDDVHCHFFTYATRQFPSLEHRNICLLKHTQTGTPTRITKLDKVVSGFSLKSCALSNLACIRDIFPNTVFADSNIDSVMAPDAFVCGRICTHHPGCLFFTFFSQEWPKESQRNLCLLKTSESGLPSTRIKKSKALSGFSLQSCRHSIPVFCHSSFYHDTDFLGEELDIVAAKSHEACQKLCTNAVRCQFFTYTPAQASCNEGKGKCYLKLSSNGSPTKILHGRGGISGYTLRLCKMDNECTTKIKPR

IC50 [µM] | SMILES
> 40 | Nc1nccc2cc(CNC(=O)c3cc(Cl)cnc3NCc3ccccn3)ccc12 [Example 1.43]
> 40 | Nc1nccc2cc(CNC(=O)c3cc(Cl)cnc3Nc3ccc(N4CCOCC4)cc3)ccc12 [Example 1.44]
> 40 | Nc1nccc2cc(CNC(=O)c3cc(Cl)cnc3NCC(=O)N3CCOCC3)ccc12 [Example 1.45]

Target: T2, Human Factor XIIa (Homo sapiens, UniProt P00748)
T2 construct: purchased Enzyme Research Laboratories
T2 sequence (P00748 373-615 limits assumed): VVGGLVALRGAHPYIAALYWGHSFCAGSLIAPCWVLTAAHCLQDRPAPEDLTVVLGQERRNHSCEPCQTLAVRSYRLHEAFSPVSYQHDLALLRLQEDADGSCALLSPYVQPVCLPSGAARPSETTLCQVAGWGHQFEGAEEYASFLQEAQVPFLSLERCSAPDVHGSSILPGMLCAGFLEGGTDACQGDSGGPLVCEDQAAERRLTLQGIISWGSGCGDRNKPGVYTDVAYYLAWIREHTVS
T2 sequence (P00748 20-372 partner limits assumed): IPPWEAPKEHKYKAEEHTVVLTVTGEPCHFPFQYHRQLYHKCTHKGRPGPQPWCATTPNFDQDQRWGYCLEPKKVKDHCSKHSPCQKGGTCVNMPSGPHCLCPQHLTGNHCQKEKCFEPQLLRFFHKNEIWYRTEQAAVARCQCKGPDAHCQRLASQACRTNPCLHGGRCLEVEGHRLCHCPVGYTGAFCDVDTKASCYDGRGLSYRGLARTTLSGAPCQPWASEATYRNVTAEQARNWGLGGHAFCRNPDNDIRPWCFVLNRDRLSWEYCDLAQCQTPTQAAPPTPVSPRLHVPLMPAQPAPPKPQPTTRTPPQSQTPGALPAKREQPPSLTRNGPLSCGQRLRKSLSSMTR
Assay: Determination of Factor XIIa inhibitory activity in vitro (fluorogenic substrate H-DPro-Phe-Arg-AFC)
Type: biochemical
Conditions: Human Factor XIIa (Enzyme Research Laboratories), 25° C., read-out: Human FXIIa IC50
Description: Determination of the % Inhibition for FXIIa
Factor XIIa inhibitory activity in vitro was determined using standard published methods (see e.g. Shori et al., Biochem. Pharmacol., 1992, 43, 1209; Baeriswyl et al., ACS Chem. Biol., 2015, 10 (8) 1861; Bouckaert et al., European Journal of Medicinal Chemistry 110 (2016) 181). Human Factor XIIa (Enzyme Research Laboratories) was incubated at 25° C. with the fluorogenic substrate H-DPro-Phe-Arg-AFC and various concentrations of the test compound. Residual enzyme activity (initial rate of reaction) was determined by measuring the […] and the IC50 value for the test compound was determined.

IC50 [µM] | SMILES
10 to 40 | Nc1nccc2cc(CNC(=O)c3cncc(-c4ccccc4)c3)ccc12 [Example 29.01]
3 to 10 | Nc1nccc2cc(CNC(=O)c3cncc(-c4ccnn4Cc4ccccc4)c3)ccc12 [Example 29.03, N-((1-aminoisoquinolin-6-yl)methyl)-5-(1-benzyl-1H-pyrazol-5-yl)nicotinamide]
10 to 40 | Nc1nccc2cc(CNC(=O)c3cncc(CN4CCNCC4)c3)ccc12 [Example 29.04]
3 to 10 | Nc1nccc2cc(CNC(=O)c3cccc(CN4CCN(CC5CCCC5)CC4)c3)ccc12 [Example 29.09]
3 to 10 | CN1CCN(Cc2cc(Cl)cc(C(=O)NCc3ccc4c(N)nccc4c3)c2)CC1 [Example 29.10]
3 to 10 | Nc1nccc2cc(CNC(=O)c3cc(Cl)cc(CN4CCN(CC5CCCC5)CC4)c3)ccc12 [Example 29.11, N-((1-aminoisoquinolin-6-yl)methyl)-3-chloro-5-((4-(cyclopentylmethyl)piperazin-1-yl)methyl)benzamide]
3 to 10 | C[C@@H]1CCC[C@H](C)N1CC(=O)Nc1cc(Cl)cc(C(=O)NCc2ccc3c(N)nccc3c2)c1 [Example 32.05]
10 to 40 | COc1ccc(-n2cc(C(F)F)nn2)c(CNC(=O)c2nccnc2NCC2CCN(C)CC2)c1F [Example 33.22]
10 to 40 | Cc1cc(CN)cc(C)c1CNC(=O)c1nccnc1NCC1CCN(C)CC1 [Example 33.23]

More lines, now with the values behind:

SMILES | IC50 [µM]
Nc1nccc2cc(CNC(=O)c3cc(Cl)cnc3NCc3ccccn3)ccc12 [Example 1.43] | 3 to 10
Nc1nccc2cc(CNC(=O)c3cc(Cl)cnc3Nc3ccc(N4CCOCC4)cc3)ccc12 [Example 1.44] | 10 to 40
Nc1nccc2cc(CNC(=O)c3cc(Cl)cnc3NCC(=O)N3CCOCC3)ccc12 [Example 1.45] | 10 to 40
Nc1nccc2cc(CNC(=O)c3cc(Cl)cnc3OCCN3CCCC3)ccc12 [Example 22.08] | 10 to 40
CN(C)CCOc1ncc(Cl)cc1C(=O)NCc1ccc2c(N)nccc2c1 [Example 22.09] | 10 to 40
CCN(CC)CCCOc1ncc(Cl)cc1C(=O)NCc1ccc2c(N)nccc2c1 [Example 22.10] | 10 to 40
Nc1nccc2cc(CNC(=O)c3cc(Cl)cnc3OCCCN3CCCCC3)ccc12 [Example 22.11] | 10 to 40
Nc1nccc2cc(CNC(=O)c3cc(Cl)cnc3Oc3ccc(N4CCNCC4)cc3)ccc12 [Example 22.12] | 3 to 10
Nc1nccc2cc(CNC(=O)c3cc(Cl)cnc3Oc3cccc(N4CCNCC4)c3)ccc12 [Example 22.13] | 10 to 40
CN(Cc1ccccc1)c1ncc(Cl)cc1C(=O)NCc1ccc2c(N)nccc2c1 [Example 28.01, N-((1-aminoisoquinolin-6-yl)methyl)-2-(benzyl(methyl)amino)-5-chloronicotinamide] | 10 to 40
CN(CC1CCN(c2ccncc2)CC1)c1ncc(Cl)cc1C(=O)NCc1ccc2c(N)nccc2c1 [Example 28.02, N-((1-aminoisoquinolin-6-yl)methyl)-5-chloro-2-(methyl((1-(pyridin-4-yl)piperidin-4-yl)methyl)amino)nicotinamide] | 10 to 40
CN(C)CCCOc1cccc(CN(C)c2ncc(Cl)cc2C(=O)NCc2ccc3c(N)nccc3c2)c1 [Example 28.03, N-((1-aminoisoquinolin-6-yl)methyl)-5-chloro-2-((3-(3-(dimethylamino)propoxy)benzyl)(methyl)amino)nicotinamide] | 3 to 10
CN(c1ncc(Cl)cc1C(=O)NCc1ccc2c(N)nccc2c1)C1CCOCC1 [Example 28.04, N-((1-aminoisoquinolin-6-yl)methyl)-5-chloro-2-(methyl(tetra hydro-2H-pyran-4-yl)amino)nicotinamide] | 10 to 40
CN(c1ccccc1)c1ncc(Cl)cc1C(=O)NCc1ccc2c(N)nccc2c1 [Example 28.05, N-((1-aminoisoquinolin-6-yl)methyl)-5-chloro-2-(methyl(phenyl)amino)nicotinamide] | 10 to 40
CN(c1cccc(Cl)c1)c1ncc(Cl)cc1C(=O)NCc1ccc2c(N)nccc2c1 [Example 28.06] | 10 to 40
